Calls of active or inactive are those of the source.
Assays:
[1] = molecular target: T1, Sodium channel protein type 9 subunit alpha (Homo sapiens, UniProt Q15858); assay: Inhibition of recombinant human Nav1.7 expressed in HEK293 cells at -70 mV holding potential by patch clamp electrophysiology method; assay type: cell-based
Target sequence in this assay (Q15858 whole entry): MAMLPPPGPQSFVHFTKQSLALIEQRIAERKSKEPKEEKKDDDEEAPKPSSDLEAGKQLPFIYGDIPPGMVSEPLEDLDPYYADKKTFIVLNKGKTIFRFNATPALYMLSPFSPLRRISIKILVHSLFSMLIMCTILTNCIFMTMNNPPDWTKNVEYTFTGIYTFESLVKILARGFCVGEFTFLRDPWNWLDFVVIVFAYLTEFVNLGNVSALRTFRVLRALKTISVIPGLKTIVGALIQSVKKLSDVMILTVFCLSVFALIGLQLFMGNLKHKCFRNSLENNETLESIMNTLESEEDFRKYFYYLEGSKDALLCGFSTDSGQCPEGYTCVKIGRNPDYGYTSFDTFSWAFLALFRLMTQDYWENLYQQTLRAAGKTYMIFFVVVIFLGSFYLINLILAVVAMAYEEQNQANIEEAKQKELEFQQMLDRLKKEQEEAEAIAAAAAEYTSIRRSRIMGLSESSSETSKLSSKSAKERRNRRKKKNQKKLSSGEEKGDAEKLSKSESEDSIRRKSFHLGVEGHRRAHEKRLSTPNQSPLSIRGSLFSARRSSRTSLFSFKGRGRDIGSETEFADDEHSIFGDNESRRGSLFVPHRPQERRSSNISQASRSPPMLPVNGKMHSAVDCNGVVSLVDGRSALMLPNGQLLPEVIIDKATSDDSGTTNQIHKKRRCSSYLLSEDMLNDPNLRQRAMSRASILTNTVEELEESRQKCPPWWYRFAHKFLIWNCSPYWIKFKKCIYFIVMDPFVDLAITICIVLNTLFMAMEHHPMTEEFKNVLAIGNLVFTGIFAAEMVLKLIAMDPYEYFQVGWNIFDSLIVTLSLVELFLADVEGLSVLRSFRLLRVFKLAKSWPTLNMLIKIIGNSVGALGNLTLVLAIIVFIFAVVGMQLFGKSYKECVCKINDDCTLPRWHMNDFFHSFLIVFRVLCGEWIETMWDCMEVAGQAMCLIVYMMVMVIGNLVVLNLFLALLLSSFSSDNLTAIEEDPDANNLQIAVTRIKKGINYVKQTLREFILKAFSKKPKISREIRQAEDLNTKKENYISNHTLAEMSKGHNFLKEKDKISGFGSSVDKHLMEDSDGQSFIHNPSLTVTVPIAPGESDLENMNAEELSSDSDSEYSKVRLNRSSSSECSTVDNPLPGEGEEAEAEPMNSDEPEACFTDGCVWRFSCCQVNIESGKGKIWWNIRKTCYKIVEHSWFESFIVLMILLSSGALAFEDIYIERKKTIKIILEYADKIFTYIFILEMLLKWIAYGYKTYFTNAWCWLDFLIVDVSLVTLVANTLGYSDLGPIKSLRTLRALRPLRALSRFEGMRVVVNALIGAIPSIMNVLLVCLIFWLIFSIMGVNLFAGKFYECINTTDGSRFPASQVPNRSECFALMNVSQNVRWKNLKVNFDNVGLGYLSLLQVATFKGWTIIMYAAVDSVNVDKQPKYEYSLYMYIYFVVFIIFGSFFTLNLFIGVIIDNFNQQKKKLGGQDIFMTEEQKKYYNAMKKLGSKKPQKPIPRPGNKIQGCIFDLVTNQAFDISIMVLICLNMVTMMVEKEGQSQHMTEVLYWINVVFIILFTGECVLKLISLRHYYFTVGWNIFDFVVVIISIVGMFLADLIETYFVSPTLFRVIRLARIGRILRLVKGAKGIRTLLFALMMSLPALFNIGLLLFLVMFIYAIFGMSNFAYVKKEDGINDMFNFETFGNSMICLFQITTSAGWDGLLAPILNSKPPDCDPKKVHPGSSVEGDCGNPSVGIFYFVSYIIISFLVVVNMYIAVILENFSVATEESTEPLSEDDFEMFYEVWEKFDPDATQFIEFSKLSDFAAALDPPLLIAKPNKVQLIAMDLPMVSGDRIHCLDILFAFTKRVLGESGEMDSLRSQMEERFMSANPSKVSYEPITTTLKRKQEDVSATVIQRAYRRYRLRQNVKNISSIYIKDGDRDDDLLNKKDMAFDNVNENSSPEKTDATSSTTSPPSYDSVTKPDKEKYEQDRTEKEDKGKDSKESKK

[2] = Metabolic stability in human liver microsomes assessed as parent compound remaining at 0.5 uM after 10 mins; assay type: ADME, Microsome; conditions: read-out: Stability
[3] = Metabolic stability in rat liver microsomes assessed as parent compound remaining at 0.5 uM after 10 mins; assay type: ADME, Microsome; conditions: read-out: Stability
[4] = Metabolic stability in mouse liver microsomes assessed as parent compound remaining at 0.5 uM after 10 mins; assay type: ADME, Microsome; conditions: read-out: Stability
[5] = Fraction unbound in human plasma; assay type: ADME, cell-free
[6] = Fraction unbound in mouse plasma; assay type: ADME, cell-free
[7] = Permeability of the compound at pH 5.5 by PAMPA; assay type: ADME; conditions: read-out: permeability
[8] = Permeability from basolateral to apical side in human Caco2 cells; assay type: ADME, cell-based; conditions: Caco-2, read-out: permeability
Cytochrome P450 2C9 [9] = molecular target: T2, Cytochrome P450 2C9 (Homo sapiens, UniProt P11712); assay: Inhibition of CYP2C9 in human liver microsomes; assay type: ADME
T2 sequence (P11712 whole entry): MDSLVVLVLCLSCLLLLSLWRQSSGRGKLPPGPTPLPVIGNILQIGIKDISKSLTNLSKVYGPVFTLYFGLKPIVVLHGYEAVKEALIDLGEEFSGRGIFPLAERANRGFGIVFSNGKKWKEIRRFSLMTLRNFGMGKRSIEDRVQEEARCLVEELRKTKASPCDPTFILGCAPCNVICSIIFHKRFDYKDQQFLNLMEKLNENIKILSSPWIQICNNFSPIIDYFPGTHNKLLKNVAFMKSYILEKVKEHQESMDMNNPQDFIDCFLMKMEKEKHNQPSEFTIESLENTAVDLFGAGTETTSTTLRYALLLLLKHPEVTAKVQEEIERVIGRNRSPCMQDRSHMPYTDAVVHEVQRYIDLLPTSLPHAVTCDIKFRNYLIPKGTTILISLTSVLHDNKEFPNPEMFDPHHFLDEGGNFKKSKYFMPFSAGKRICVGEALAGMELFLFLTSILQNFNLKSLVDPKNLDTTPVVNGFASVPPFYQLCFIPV

Cytochrome P450 2D6 = Cytochrome P450 2D6 (Homo sapiens, UniProt P10635); assay: Inhibition of CYP2D6 in human liver microsomes; assay type: ADME
Cytochrome P450 2D6, sequence (P10635 whole entry): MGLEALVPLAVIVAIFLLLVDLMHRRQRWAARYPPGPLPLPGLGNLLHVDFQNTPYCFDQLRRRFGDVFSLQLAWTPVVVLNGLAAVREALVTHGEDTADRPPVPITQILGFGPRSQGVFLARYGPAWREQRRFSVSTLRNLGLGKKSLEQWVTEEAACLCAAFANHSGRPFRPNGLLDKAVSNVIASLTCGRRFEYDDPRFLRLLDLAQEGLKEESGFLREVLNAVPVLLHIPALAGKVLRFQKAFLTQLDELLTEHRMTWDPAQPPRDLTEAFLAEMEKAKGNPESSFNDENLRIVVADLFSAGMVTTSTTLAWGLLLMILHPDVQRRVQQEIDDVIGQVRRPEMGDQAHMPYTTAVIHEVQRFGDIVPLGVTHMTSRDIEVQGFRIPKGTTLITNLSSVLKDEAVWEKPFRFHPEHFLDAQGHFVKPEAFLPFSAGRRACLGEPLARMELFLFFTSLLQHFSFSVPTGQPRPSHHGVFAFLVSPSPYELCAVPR

Cytochrome P450 2B6 = molecular target: T3, Cytochrome P450 2B6 (Homo sapiens, UniProt P20813); assay: Time-dependant inhibition of CYP2B6 in human liver microsomes; assay type: ADME
T3 sequence (P20813 whole entry): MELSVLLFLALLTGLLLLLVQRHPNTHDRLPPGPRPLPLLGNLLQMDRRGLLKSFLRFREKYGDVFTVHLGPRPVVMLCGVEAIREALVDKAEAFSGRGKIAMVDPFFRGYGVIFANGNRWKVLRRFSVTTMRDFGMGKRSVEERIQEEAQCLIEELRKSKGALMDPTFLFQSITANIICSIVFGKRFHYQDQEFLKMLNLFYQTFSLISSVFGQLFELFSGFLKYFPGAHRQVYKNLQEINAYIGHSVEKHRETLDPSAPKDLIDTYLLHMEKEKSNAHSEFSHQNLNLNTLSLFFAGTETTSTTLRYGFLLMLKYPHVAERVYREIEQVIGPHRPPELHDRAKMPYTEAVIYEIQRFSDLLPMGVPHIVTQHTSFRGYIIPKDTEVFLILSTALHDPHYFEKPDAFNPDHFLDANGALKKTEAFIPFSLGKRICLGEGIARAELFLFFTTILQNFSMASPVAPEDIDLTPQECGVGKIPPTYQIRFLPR

Cytochrome P450 2C8 = molecular target: T4, Cytochrome P450 2C8 (Homo sapiens, UniProt P10632); assay: Time-dependant inhibition of CYP2C8 in human liver microsomes; assay type: ADME
T4 sequence (P10632 whole entry): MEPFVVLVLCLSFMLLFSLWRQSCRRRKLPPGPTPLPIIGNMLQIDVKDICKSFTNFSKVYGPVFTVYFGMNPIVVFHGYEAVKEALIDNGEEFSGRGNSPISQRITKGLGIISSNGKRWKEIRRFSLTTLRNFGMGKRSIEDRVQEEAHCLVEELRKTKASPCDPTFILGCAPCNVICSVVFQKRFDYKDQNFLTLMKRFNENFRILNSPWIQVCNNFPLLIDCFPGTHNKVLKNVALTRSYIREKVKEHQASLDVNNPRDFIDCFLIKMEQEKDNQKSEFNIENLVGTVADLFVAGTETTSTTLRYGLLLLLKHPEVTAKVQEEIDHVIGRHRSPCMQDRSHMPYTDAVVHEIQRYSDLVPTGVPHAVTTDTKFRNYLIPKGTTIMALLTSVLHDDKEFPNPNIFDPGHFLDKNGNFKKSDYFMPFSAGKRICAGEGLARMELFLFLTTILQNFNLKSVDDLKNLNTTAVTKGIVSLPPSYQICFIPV

Cytochrome P450 2C9 [10] = molecular target: T2, Cytochrome P450 2C9; assay: Time-dependant inhibition of CYP2C9 in human liver microsomes; assay type: ADME
[11] = molecular target: T5, Nuclear receptor subfamily 1 group I member 2 (Homo sapiens, UniProt O75469); assay: Inhibition of PXR (unknown origin); assay type: ADME
T5 sequence (O75469 whole entry): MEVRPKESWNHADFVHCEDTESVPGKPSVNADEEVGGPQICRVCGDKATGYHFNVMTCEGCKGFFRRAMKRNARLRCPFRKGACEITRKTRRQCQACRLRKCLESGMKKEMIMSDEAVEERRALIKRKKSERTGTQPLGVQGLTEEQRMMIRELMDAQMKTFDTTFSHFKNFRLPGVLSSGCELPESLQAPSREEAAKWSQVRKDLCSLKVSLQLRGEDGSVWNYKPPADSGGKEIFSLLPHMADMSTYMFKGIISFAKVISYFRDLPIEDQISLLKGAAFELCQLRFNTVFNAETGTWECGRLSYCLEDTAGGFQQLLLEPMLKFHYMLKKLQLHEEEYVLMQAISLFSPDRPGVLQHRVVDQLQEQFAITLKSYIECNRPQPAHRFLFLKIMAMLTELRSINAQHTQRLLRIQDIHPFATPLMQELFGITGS

[12] = molecular target: Sodium channel protein type 9 subunit alpha (Mus musculus, UniProt Q62205); assay: Inhibition of Nav1.7 in mouse DRG neurons at -70 mV holding potential by patch clamp electrophysiology method
Sodium channel protein type 9 subunit alpha (Mus musculus, UniProt Q62205), sequence (Q62205 whole entry): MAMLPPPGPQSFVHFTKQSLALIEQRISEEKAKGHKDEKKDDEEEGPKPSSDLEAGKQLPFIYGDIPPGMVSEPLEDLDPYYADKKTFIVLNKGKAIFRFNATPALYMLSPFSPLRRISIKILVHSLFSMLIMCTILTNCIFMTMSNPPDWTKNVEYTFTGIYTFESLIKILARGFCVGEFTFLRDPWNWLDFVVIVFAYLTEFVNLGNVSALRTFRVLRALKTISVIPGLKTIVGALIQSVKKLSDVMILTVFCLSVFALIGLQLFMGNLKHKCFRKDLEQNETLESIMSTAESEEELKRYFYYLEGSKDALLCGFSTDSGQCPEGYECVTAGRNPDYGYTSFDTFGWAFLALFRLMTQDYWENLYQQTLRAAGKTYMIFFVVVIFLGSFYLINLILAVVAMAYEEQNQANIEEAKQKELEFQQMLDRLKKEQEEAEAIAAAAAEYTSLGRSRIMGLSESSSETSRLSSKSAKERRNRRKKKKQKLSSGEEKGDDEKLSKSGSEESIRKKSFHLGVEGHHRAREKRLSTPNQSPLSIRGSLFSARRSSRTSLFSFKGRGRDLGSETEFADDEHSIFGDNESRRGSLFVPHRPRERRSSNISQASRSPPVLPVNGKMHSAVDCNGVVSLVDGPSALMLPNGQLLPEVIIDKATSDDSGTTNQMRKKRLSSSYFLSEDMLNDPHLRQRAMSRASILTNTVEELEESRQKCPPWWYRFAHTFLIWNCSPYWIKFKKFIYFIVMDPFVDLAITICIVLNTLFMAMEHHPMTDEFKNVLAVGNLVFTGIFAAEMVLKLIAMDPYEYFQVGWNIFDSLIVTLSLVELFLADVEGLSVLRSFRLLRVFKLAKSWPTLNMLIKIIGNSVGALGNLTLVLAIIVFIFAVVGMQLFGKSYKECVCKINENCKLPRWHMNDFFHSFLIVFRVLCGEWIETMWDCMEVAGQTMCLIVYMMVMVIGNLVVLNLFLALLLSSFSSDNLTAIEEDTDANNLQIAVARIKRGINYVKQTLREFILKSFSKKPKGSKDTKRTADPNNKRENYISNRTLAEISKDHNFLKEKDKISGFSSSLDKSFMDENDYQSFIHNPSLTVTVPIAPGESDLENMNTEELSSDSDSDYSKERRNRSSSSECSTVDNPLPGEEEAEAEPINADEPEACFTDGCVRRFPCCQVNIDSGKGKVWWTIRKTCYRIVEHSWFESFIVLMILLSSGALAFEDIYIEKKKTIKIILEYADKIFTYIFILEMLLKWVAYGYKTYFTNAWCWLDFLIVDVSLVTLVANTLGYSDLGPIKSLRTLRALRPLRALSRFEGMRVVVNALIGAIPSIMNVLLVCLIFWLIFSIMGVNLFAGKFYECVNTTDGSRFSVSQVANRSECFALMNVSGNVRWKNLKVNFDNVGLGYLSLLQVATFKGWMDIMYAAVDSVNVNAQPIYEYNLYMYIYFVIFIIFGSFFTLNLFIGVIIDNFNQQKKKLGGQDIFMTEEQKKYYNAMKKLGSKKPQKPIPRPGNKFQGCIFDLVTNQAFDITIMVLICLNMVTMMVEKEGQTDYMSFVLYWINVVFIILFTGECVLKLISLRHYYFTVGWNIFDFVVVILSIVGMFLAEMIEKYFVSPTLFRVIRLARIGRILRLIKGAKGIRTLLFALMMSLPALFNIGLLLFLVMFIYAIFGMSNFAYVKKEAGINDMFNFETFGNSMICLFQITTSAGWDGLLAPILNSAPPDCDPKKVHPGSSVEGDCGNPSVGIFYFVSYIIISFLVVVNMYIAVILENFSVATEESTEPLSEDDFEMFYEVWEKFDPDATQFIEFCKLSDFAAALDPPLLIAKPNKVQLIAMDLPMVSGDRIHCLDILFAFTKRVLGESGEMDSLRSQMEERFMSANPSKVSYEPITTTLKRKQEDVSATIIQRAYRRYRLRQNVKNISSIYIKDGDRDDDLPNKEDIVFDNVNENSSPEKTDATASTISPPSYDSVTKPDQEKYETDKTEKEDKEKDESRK

[13] = Fraction unbound in mouse DRG neurons; assay type: ADME, cell-based, DRG neuron
[14] = molecular target: T1, Sodium channel protein type 9 subunit alpha; assay: Inhibition of recombinant human Nav1.7 expressed in HEK293 cells assessed as association time constant at -70 mV holding potential by patch clamp electrophysiology method; assay type: cell-based
Target sequence in this assay (Q15858 whole entry, looked up): as the sequence (Q15858 whole entry) above

Mus musculus [15] = assay: Analgesic activity in CD1 mouse model of CFA-induced thermal hyperalgesia assessed as reduction in thermal response latency at 30 mg/kg, ip administered 72 hrs post CFA challenge and measured at 60 mins post dose by Hargreave's test; assay type: functional, organism-based
Mus musculus [16] = assay: Analgesic activity in CD1 mouse model of CFA-induced thermal hyperalgesia assessed as reduction in thermal response latency at 30 mg/kg, ip administered 72 hrs post CFA challenge and measured at 180 mins post dose by Hargreave's test; assay type: functional, organism-based
[17] = Plasma concentration in CD1 mouse model of CFA-induced thermal hyperalgesia at 3 to 30 mg/kg, ip; assay type: ADME, organism-based; conditions: in vivo
[18] = Unbound plasma concentration in CD1 mouse model of CFA-induced thermal hyperalgesia at 3 to 30 mg/kg, ip; assay type: ADME, organism-based; conditions: in vivo
[19] = Ratio of unbound plasma concentration in CD1 mouse model of CFA-induced thermal hyperalgesia at 3 to 30 mg/kg, ip to IC50 for recombinant mouse Nav1.7 expressed in HEK293 cells at -70 mV holding potential by patch clamp electrophysiology method; assay type: ADME, organism-based; conditions: in vivo
Mus musculus [20] = assay: Reduction in mechanoreceptor-mediated afferent transmission in mouse assessed as effect on sural nerve mechanosensitivity at 30 mg/kg, ip measured at 5 to 120 mins post dose at 1.6 mN threshold pressure; assay type: functional, organism-based
Mus musculus [21] = assay: Reduction in mechanoreceptor-mediated afferent transmission in mouse assessed as effect on sural nerve mechanosensitivity by measuring decrease in mechanically elicited afferent firing at 30 mg/kg, ip measured at 90 to 120 mins post dose at 98 to 980 mN threshold pressure; assay type: functional, organism-based
[22] = Ratio of fraction unbound in mouse DRG neurons to IC50 for mouse DRG Nav1.7 at -70 mV holding potential by patch clamp electrophysiology method

Which IC50 [1] does the source give for `CC(C)COc1ccc(-c2cn(C)c3cc(C(=O)NS(C)(=O)=O)c(F)cc23)cn1` here?
The IC50 was 0.025 µM.

And the remaining at 10 min, 0.5 µM [2]?
Its remaining at 10 min, 0.5 µM is 98%.

And the remaining at 10 min, 0.5 µM [3]?
The remaining at 10 min, 0.5 µM was 98%.

What about the remaining at 10 min, 0.5 µM [4] of the same compound?
Its remaining at 10 min, 0.5 µM is 99%.

And the fraction unbound [5]?
The fraction unbound was 0.008.

And the fraction unbound [6]?
Its fraction unbound is 0.014.

What about the Papp [7] of the same compound?
The Papp was 80.2 ×10⁻⁶ cm/s.

What about the Papp B→A [8] of the same compound?
The Papp B→A was 18.6 ×10⁻⁶ cm/s.

What about the IC50 (Cytochrome P450 2C9 [9]) of the same compound?
The IC50 was 27 µM.

And the IC50 (Cytochrome P450 2D6)?
The IC50 was over 40 µM.

And the TDI (Cytochrome P450 2B6)?
The TDI was “Not Active”.

And the TDI (Cytochrome P450 2C8)?
The TDI was “Not Active”.

And the TDI (Cytochrome P450 2C9 [10])?
The TDI was “Not Active”.

And the IC50 [11]?
The IC50 was over 50 µM.

What about the IC50 [12] of the same compound?
The IC50 was 0.014 µM.

What about the fraction unbound [13] of the same compound?
Its fraction unbound is 0.085.

What about the TIME [14] of the same compound?
Its TIME is 0.00336 h.

And the Activity (Mus musculus [15])?
The Activity was “inactive”.

And the Activity (Mus musculus [16])?
The Activity was “inactive”.

And the concentration [17]?
The concentration was 38 µM.

What about the “Cp(f)” value [18] of the same compound?
Its value is 0.532 µM.

And the Ratio [19]?
Its Ratio is 4 to 5.

What about the Activity (Mus musculus [20]) of the same compound?
The Activity was “inactive”.

What about the Activity (Mus musculus [21]) of the same compound?
Its Activity is “Active”.

And the Ratio [22]?
The Ratio was 5.5.

Which IC50 [1] does the source give for `CC(C)COc1ncc(-c2cn(C)c3cc(C(=O)NS(C)(=O)=O)ccc23)cc1Cl` here?
Its IC50 is 0.008 µM.

What about the remaining at 10 min, 0.5 µM [2] of the same compound?
Its remaining at 10 min, 0.5 µM is 95%.

And the remaining at 10 min, 0.5 µM [3]?
The remaining at 10 min, 0.5 µM was 66%.

What about the remaining at 10 min, 0.5 µM [4] of the same compound?
The remaining at 10 min, 0.5 µM was 100%.

What about the fraction unbound [5] of the same compound?
Its fraction unbound is under 0.001.

And the fraction unbound [6]?
The fraction unbound was 0.002.

And the Papp [7]?
The Papp was 44.3 ×10⁻⁶ cm/s.

What about the Papp B→A [8] of the same compound?
The Papp B→A was 16.8 ×10⁻⁶ cm/s.

And the IC50 (Cytochrome P450 2C9 [9])?
The IC50 was 9.9 µM.

What about the IC50 (Cytochrome P450 2D6) of the same compound?
Its IC50 is over 40 µM.

What about the TDI (Cytochrome P450 2B6) of the same compound?
The TDI was “Not Active”.

What about the TDI (Cytochrome P450 2C8) of the same compound?
Its TDI is “Not Active”.

What about the TDI (Cytochrome P450 2C9 [10]) of the same compound?
The TDI was “Not Active”.

What about the IC50 [11] of the same compound?
Its IC50 is over 50 µM.

What about the IC50 [12] of the same compound?
Its IC50 is 0.011 µM.

What about the fraction unbound [13] of the same compound?
The fraction unbound was 0.035.

What about the TIME [14] of the same compound?
The TIME was 0.00267 h.

What about the Activity (Mus musculus [15]) of the same compound?
Its Activity is “Active”.

What about the Activity (Mus musculus [16]) of the same compound?
Its Activity is “inactive”.

What about the concentration [17] of the same compound?
The concentration was 63 µM.

And the “Cp(f)” value [18]?
The value was 0.126 µM.

What about the Ratio [19] of the same compound?
The Ratio was 4 to 5.

What about the Activity (Mus musculus [20]) of the same compound?
The Activity was “inactive”.

And the Activity (Mus musculus [21])?
Its Activity is “Active”.

What about the Ratio [22] of the same compound?
The Ratio was 8.7.

— ChEMBL document CHEMBL4371076 (J Med Chem, 2019)
